# Reference: patent publication US10556926B2, “Synthetic artificial peptides with antimicrobial effect” (priority 2014, dated 2020)
# Key:
# human cell line U937 = test: Mixed culture experiment (bacterially contaminated cell culture), eukaryotic cells; format: cell-based; details: 25 and 50 μM peptide, two hours, with S. xylosus
# Description: (§1) Destruction of the bacteria membranes by the antimicrobial peptides was investigated in a flow cytometric method with the help of a living/dead staining method in combination with an internal calibration and counting system. For this purpose, SYBR Green I (Sigma-Aldrich) was used as total staining and propidium iodide (Sigma-Aldrich) was used as contrast staining for membrane-damaged bacteria. […] The flow analysis was carried out on a Cytomics FC500 Instrument (Beckmann Coulter, Munich, Germany) equipped with an argon laser (488 nm) and the corresponding emission filters for SYBR Green I (525 nm) and propidium iodide (620 nm). […] Then, the mixture was incubated for 10 min in the dark at room temperature and then measured by flow cytometry. The number of events in each gate was captured and evaluated using the CXP Analyses 2.2 Software. The total number of living and dead bacteria was calculated. […]
# (§2) The ability of the antimicrobial peptides to be used as a therapeutic active ingredient was investigated by reference to its selective antimicrobial properties in model mixed culture experiments. […] Then, the mixed cell cultures were stained and measured by flow cytometry as described in example 3, the measurement scale being adapted to the measurement of the larger eukaryotic cells.
# Staphylococcus xylosus = test: Mixed culture experiment (bacterially contaminated cell culture), bacteria; format: cell-based; details: 25 and 50 μM peptide, two hours, with U937
# Description: as §1, §2
smiles,measurement,setting,value
CC[C@H](C)[C@H](NC(=O)CN)C(=O)NCC(=O)N[C@@H](C)C(=O)N[C@H](C(=O)N[C@@H](CC(C)C)C(=O)N[C@@H](CCCCN)C(=O)N[C@H](C(=O)N[C@@H](CC(C)C)C(=O)N[C@H](C(=O)N[C@H](C(=O)NCC(=O)N[C@@H](CC(C)C)C(=O)N1CCC[C@H]1C(=O)N[C@@H](C)C(=O)N[C@@H](CC(C)C)C(=O)N[C@H](C(=O)N[C@@H](CO)C(=O)N[C@@H](Cc1c[nH]c2ccccc12)C(=O)N[C@H](C(=O)N[C@@H](CCCCN)C(=O)N[C@@H](CCCNC(=N)N)C(=O)N[C@@H](CCCCN)C(=O)N[C@@H](CCCNC(=N)N)C(=O)N[C@@H](CCC(N)=O)C(=O)N[C@@H](CCC(N)=O)C(N)=O)[C@@H](C)CC)[C@@H](C)CC)[C@@H](C)O)[C@@H](C)O)C(C)C)C(C)C [Melittin],Effect on eukaryotic U937 cells in mixed culture,human cell line U937,destroys all of the eukaryotic U937 cells
same,Killing of S. xylosus cells in mixed culture,Staphylococcus xylosus,comprehensive killing of bacteria cells
